{"source": "patent US20140179719A1", "about": "“NOVEL AMORPHOUS SOLID DISPERSIONS OF VALGANCICLOVIR HYDROCHLORIDE” (priority 2012, published 2014)", "origin": "cited, not measured here", "settings": "ganciclovir administered orally", "note": "Read-outs that look alike come from different tables or passages of the source."}
{"molecule": "Nc1nc(O)c2ncn(COC(CO)CO)c2n1", "note": "[Ganciclovir]", "values": [{"measurement": "bioavailability of ganciclovir, oral formulation", "result": "6-10%"}, {"measurement": "bioavailability of ganciclovir, oral formulation", "setting": "listed as gancilcovir", "result": 6, "unit": "%"}]}
